Holding throughout (assay): growth of human tumour cells (NCI), 48 h
The test system of assay [1] is HOP-92 NSCLC.
In assay [2] the test system is EKVX NSCLC.
Assay [3] has as its system SF-268 CNS.
Assay [4] concerns LOX IMVI melanoma.
The subject of assay [5] is SK-OV-3 ovarian.
Assay [6] deals with RPMI-8226 leukemia.
Assay [7] has as its system SK-MEL-2 melanoma.
Assay [8] has as its system HCT-15 colon.
In assay [9] the test system is UO-31 renal.
Assay [10] deals with SNB-75 CNS.
Assay [11] deals with KM12 colon.
In assay [12] the test system is HT29 colon.
The test system of assay [13] is SK-MEL-5 melanoma.
The subject of assay [14] is SW-620 colon.
Assay [15] concerns MDA-MB-435.
For assay [16], the system named is NCI-H226 lung.
Assay [17] deals with TK-10 renal.
The subject of assay [18] is NCI/ADR-RES ovarian.
Assay [19] concerns ACHN renal.
Assay [20] concerns OVCAR-8 ovarian.

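Where inhibition never reached the appropriate level, the endpoint shown equals the highest concentration tested. Otherwise, values were interpolated linearly from a five-concentration, 48-hour dose response in 96-well plates. At the TGI there is no net growth.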 Where only a bound is given, the exact number is not on record here.

Take `O=c1ssc(Cl)c1Nc1c(Cl)ssc1=O`: the TGI in [1] came to 41.6 µM; in assay [2], 41.4 µM; in assay [3] it was 51.8 µM; in [4], 31.2 µM; in [5] it was 59 µM; in [6] it was 29.9 µM. For the same molecule, the TGI in [7] was determined as 37.6 µM; in [8], 39.6 µM; in assay [9], 32.4 µM; in [10], 46.5 µM; in assay [11] it was 32.3 µM; in [12], 47.5 µM. The TGI in assay [13] is 32 µM; in [14] it was greater than 54.4 µM; in assay [15], 37.7 µM; in assay [16], 79 µM; in [17], 33.3 µM; in [18] it was 71.4 µM. Also, the TGI is greater than 54.3 µM in [19] and 51.3 µM in [20].
As for `O=C1C(c2c(O)[nH]c3ccc(S(=O)(=O)O)cc23)=Nc2ccc(Br)cc21`, the TGI in assay [1], in assay [2], in assay [3], in assay [4], in [5] and in assay [6] was greater than 100 µM throughout. Besides, the TGI in assay [7], in [8], in [9], in [10], in assay [11] and in assay [12] was greater than 100 µM throughout. In addition, the TGI in [13], in assay [14], in [15], in assay [16], in assay [17] and in assay [18] was greater than 100 µM in each case. Also, the TGI in [19] and in assay [20] was greater than 100 µM in each case.
Consider `CN(C)c1nc2n(CCO)c(-c3ccccc3)c(-c3ccccc3)nc-2c(=O)n1`, for which the TGI in assay [1], in assay [2], in assay [3], in assay [4], in assay [5] and in assay [6] was greater than 100 µM each time. Also, the TGI in assay [7], in [8], in assay [9], in [10], in [11] and in assay [12] was greater than 100 µM in each case. In addition, the TGI in [13], in [14], in assay [15], in [16], in [17] and in assay [18] was greater than 100 µM in each case. The TGI in assay [19] and in assay [20] was greater than 100 µM throughout.
Take `O=C1c2ccccc2C(=O)c2c1ccc1nc3c(nc21)-c1c2ccccc2cc2cccc-3c12`: the TGI in assay [1], in assay [2], in assay [3], in [4], in assay [5] and in [6] was greater than 100 µM each time. In addition, the TGI is greater than 100 µM in assay [7]; greater than 100 µM in [8]; greater than 100 µM in [9]; greater than 31.6 µM in [10]; greater than 94.9 µM in assay [11]; greater than 100 µM in [12]. The TGI was greater than 100 µM in assay [13]; greater than 100 µM in assay [14]; 38.6 µM in assay [15]; greater than 100 µM in assay [16]; greater than 100 µM in assay [17]; greater than 100 µM in assay [18]. In addition, the TGI in assay [19] is greater than 57.6 µM; in assay [20], greater than 100 µM.
For `O=C1Nc2ccccc2S/C1=C\c1ccccc1C(F)(F)F`, the TGI in [1], in [2], in assay [3], in assay [4], in [5] and in assay [6] was greater than 100 µM throughout. Moreover, the TGI is greater than 100 µM in assay [7]; greater than 100 µM in assay [8]; greater than 100 µM in assay [9]; 92.3 µM in assay [10]; greater than 100 µM in assay [11]; greater than 100 µM in assay [12]. The TGI in assay [13], in assay [14], in assay [15], in assay [16], in assay [17] and in assay [18] was greater than 100 µM in each case. Further, the TGI in [19] and in assay [20] was greater than 100 µM throughout.
On to `O=C(O)c1ccccc1CC1Cc2ccc3c(c2C1=O)CCC3` (stereo not given), for which the TGI in assay [1], in assay [2], in assay [3], in assay [4], in [5] and in assay [6] was greater than 100 µM each time. In addition, the TGI in [7], in assay [8], in assay [9], in assay [10], in [11] and in [12] was greater than 100 µM each time. Besides, the TGI in [13], in assay [14], in assay [15], in assay [16], in [17] and in assay [18] was greater than 100 µM throughout. The TGI in assay [19] and in assay [20] was greater than 100 µM each time.
As to `O=C(O)C1=C(C(=O)O)N(c2ccncc2)C(c2ccco2)=CC1c1ccccc1[N+](=O)[O-]` (stereo not given), the TGI in assay [1] was 22.1 µM; in assay [2], 26.6 µM; in assay [3] it was 36.1 µM; in assay [4] it was 4.02 µM; in assay [5], 44.1 µM; in [6] it was greater than 24.6 µM. The TGI worked out at 37.3 µM in assay [7]; 4.25 µM in assay [8]; 20.6 µM in assay [9]; 23.9 µM in [10]; 3.36 µM in assay [11]; 3.2 µM in assay [12]. In addition, the TGI is greater than 47.4 µM in assay [13]; greater than 27.1 µM in assay [14]; greater than 56 µM in assay [15]; 40.2 µM in assay [16]; 17.6 µM in assay [17]; greater than 69.9 µM in assay [18]. Further, the TGI is 3.13 µM in assay [19] and greater than 59 µM in assay [20].

The values are drawn from PubChem BioAssay (NCI).
